Experiment [1] addresses T1, Porcine brain tubulin protein (Sus scrofa, UniProt P02554).
T1 construct: Porcine brain tubulin protein was dissolved in EM buffer; from tissue; host or cells: porcine brain
Kind of experiment: In vitro tubulin polymerization assay. Format: biochemical. The procedure: The ability of compound 3g to disrupt microtubule dynamics was assessed using an in vitro tubulin polymerization assay.
Porcine brain tubulin protein was dissolved in EM buffer containing 5% glycerol (80 mM PIPES, 2 mM GTP, 2 mM MgCl2, and 0.5 mM EGTA, pH 6.9). Compounds were diluted in EM buffer to final concentrations of 50, 25, 10, 5, and 2.5 μM and added to a pre-warmed 384-well plate, followed by pre-incubation at 37 °C. Subsequently, 14 μL of the tubulin-GTP mixture was added to each well containing the test compounds. Tubulin polymerization was monitored by measuring absorbance at 340 nm every minute for 60 min. […] Each assay was performed in triplicate.
Absorbance at 340 nm was determined every 1 min.

The test system of experiment [2] is MCF-7 cells. Kind of experiment: CCK-8 antiproliferative assay, MCF-7. Format: cell-based. Particulars: Homo sapiens, MCF7; cell viability (CCK-8), 48 h. The procedure:
(§1) To evaluate the anticancer potential of the synthesized compounds, a panel of six human and murine cancer cell lines representing different tissue origins was selected, including MCF-7 (human breast adenocarcinoma), MDA-MB-231 (human triple-negative breast cancer), A549 (human non-small cell lung cancer), HeLa (human cervical cancer), A375 (human melanoma), and B16-F10 (murine melanoma) (Table 2). […] DMSO was used as the vehicle control, and all experiments were performed in triplicate to ensure reproducibility.
(§2) Human breast cancer cells (MCF-7), human lung cancer cells (A549), human cervical cancer cells (HeLa), human triple-negative breast cancer cells (MDA-MB-231), and human malignant melanoma cells (A375) were cultured in DMEM. Mouse melanoma cells (B16F10) were maintained in RPMI-1640 medium. All media were supplemented with 10% fetal bovine serum and 1% penicillin-streptomycin (Life Technologies, Carlsbad, CA, USA) and maintained at 37 °C in a humidified atmosphere with 5% CO2.
(§3) The cytotoxicity of the test compounds was evaluated against MCF-7, A549, HeLa, MDA-MB-231, A375, and B16F10 using the CCK-8 assay. Cells were seeded into 96-well plates at a density of 5000 cells/well. After removing the medium, 100 μL of medium with 0.1% DMSO containing test compounds at different concentrations was added to each well and incubated at 37 °C for another 48 h. The CCK-8 solution was added and incubated for another 1 h, and then, the absorbance was detected with a microplate reader at a wavelength of 450 nm. The IC50 values were calculated by nonlinear regression analysis using GraphPad Prism 8.0.2. All the experiments were repeated at least three times.
In general terms: Tetrazolium dyes change colour on reduction, which living cells bring about.

The subject of experiment [3] is A549 cells. Kind of experiment: CCK-8 antiproliferative assay, A549. Format: cell-based. The following applies: Homo sapiens, cell viability (CCK-8), 48 h. The procedure: as §1, §2, §3
Experiment [4] concerns HeLa cells. Kind of experiment: CCK-8 antiproliferative assay, HeLa. The format is cell-based. The following applies: Homo sapiens, cell viability (CCK-8), 48 h. How it is done:
as §1, §2, §3

For experiment [5], the target named is T2, purified porcine brain tubulin (Sus scrofa, UniProt P02554).
T2 construct: purified porcine brain tubulin; from tissue; host or cells: porcine brain
Nature of the experiment: Biolayer interferometry (BLI) binding to tubulin. The following applies: immobilized tubulin, 1:1 binding model, mean ± SD, triplicate. How it is done: To detect the direct interaction between the synthesized compounds and tubulin, biolayer interferometry (BLI) experiments were performed using purified porcine brain tubulin immobilized on Super Streptavidin (SSA) biosensor [30]. […] Association and dissociation kinetics were monitored in real time, and equilibrium dissociation constants (KD) were determined by global fitting of the sensorgrams to a 1:1 binding model. All measurements were conducted in triplicate, and results are reported as mean ± SD.
BLI assays were performed on an Octet RED96 instrument (FortéBio, Pall Life Sciences, Menlo Park, CA, USA) at 25 °C in PBS buffer supplemented with 0.02% (v/v) Tween-20 as the running buffer. Biotinylated tubulin proteins (3 μg/mL) were immobilized onto Super Streptavidin (SSA) biosensors. Association and dissociation were monitored for 60 s each. […] Reference subtraction was performed using sensors incubated in running buffer without protein loading to correct for baseline drift. Data were analyzed using Octet Data Analysis software (version 9.0), and equilibrium dissociation constants (KD) were determined by fitting the curves to a 1:1 binding model. All measurements were performed in triplicate, and results are reported as mean ± SD.
BLI assays were performed on an Octet RED96 instrument (FortéBio, Pall Life Sciences) at 25 °C in PBS buffer supplemented with 0.02% (v/v) Tween-20 as the running buffer. Biotinylated tubulin proteins (3 μg/mL) were immobilized onto Super Streptavidin (SSA) biosensors. Association and dissociation were monitored for 60 s […]
Reference subtraction was performed using sensors incubated in running buffer without protein loading to correct for baseline drift. Data were analyzed using Octet Data Analysis software (version 9.0), and equilibrium dissociation constants (KD) were determined by fitting the curves to a 1:1 binding model. All measurements were performed in triplicate, and results are reported as mean ± SD.

T1 sequence (P02554 whole entry): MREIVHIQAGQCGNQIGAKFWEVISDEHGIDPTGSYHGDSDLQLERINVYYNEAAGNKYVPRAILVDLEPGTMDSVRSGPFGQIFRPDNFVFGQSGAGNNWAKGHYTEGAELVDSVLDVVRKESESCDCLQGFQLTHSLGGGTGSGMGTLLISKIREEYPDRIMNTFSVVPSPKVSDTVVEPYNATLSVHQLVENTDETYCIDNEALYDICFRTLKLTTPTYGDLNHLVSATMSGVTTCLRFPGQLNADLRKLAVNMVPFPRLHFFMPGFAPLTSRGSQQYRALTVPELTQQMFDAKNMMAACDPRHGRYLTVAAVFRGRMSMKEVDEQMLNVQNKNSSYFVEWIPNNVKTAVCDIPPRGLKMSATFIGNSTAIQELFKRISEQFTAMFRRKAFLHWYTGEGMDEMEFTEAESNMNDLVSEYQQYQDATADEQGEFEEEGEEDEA
T1 sequence (P02550 whole entry partner): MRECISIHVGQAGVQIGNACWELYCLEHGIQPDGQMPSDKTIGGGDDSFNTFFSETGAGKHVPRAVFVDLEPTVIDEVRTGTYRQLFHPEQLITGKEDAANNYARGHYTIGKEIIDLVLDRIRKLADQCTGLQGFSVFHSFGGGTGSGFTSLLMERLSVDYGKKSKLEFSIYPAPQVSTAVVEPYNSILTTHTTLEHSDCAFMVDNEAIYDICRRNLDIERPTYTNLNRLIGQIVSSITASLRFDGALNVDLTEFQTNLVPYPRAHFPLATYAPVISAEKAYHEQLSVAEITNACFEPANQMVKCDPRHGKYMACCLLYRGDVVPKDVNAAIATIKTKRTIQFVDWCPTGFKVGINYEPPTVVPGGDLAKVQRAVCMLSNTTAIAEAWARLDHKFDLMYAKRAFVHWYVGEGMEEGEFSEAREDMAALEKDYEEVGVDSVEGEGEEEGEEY
T2 sequence (P02554 whole entry): as the sequence (P02554 whole entry) above
T2 sequence (P02550 whole entry partner): as the sequence (P02550 whole entry partner) above

The term IC50 denotes the concentration that gives 50% inhibition. For orientation: Kd means the concentration at which binding is half-saturated. A high value points to a looser complex. In the case of `COc1cc(-n2ccc3ccc(-c4ccc(C)c(C#N)c4)cc32)cc(OC)c1OC` [3g, 2-methyl-5-(1-(3,4,5-trimethoxyphenyl)-1H-indol-6-yl)benzonitrile], the “effect on tubulin assembly” value in experiment [1] (50 μM) was “markedly suppressed tubulin assembly”. In addition, in experiment [1] (2.5–50 μM, absorbance at 340 nm), the “effect on tubulin polymerization” value is recorded as “inhibited tubulin polymerization in a concentration-dependent manner”. The IC50 in experiment [2] came to 2940 ± 560 nM; in experiment [3] it was 6.3 ± 0.3 µM; in experiment [4] it was 6.1 ± 0.31 µM. Further, the KD result in experiment [5] was “low micromolar range”. Besides, the affinity in experiment [5], expressed as Kd, was 13 ± 1.17 µM.
